From ChEMBL document CHEMBL4814018, “Rationally designed TNF-α inhibitors: Identification of promising cytotoxic agents” (Bioorg Med Chem Lett, 2021)
Calls of active or inactive are those of the source. No cut-off for these calls is given here.

Experiments:
[1] = system: BV-2; assay: Antiinflammatory activity against mouse BV2 cells assessed as decrease in LPS-induced NO production at 1 to 5 uM pretreated with compound followed by LPS stimulation incubated for 4 to 48 hrs by enzyme immunoassay; type: functional, cell-based; settings: dose 1-5 µM, time 4-48 hrs
[2] = system: BV-2; assay: Cytotoxicity against mouse BV2 cells incubated for 48 hrs by MTT assay; type: cell-based; settings: BV-2, 48 h
[3] = Therapeutic index, ratio of LC50 for human Panel NCI-60 (60 carcinoma cell lines) to GI50 for human Panel NCI-60 (60 carcinoma cell lines); type: functional

SMILES	Activity [1]	IC50 [2]	TI [3]
C#CCn1cc(C2C(Cl)C(=O)N2c2ccc(N3CCOCC3=O)cc2)c2ccccc21 (stereo unspecified)	Active	> 10 µM	–
O=C1COCCN1c1ccc(N2C(=O)C(Cl)C2c2cn(Cc3ccc(Cl)cc3)c3ccccc23)cc1 (stereo unspecified)	–	> 10 µM	–
COc1cccc2c1C(=O)c1c(O)c3c(c(O)c1C2=O)C[C@@](O)(C(=O)CO)C[C@@H]3O[C@H]1C[C@H](N)[C@H](O)[C@H](C)O1 [DOXORUBICIN]	–	–	134
C=CCn1cc(C2C(Cl)C(=O)N2c2ccc(N3CCOCC3=O)cc2)c2ccccc21 (stereo unspecified)	–	> 10 µM	–
O=C1COCCN1c1ccc(N2C(=O)C(Cl)C2c2cn(Cc3ccccc3)c3ccccc23)cc1 (stereo unspecified)	–	> 10 µM	–
